What all share (format): cell-based
Assay [1] relates to Wnt target proteins in HCT116 cells. Nature of the assay: Western blotting of Wnt target and Wnt pathway proteins in HCT116 cells. As to conditions: 50 μM, 18 hr. The procedure:
HCT116 cells were treated with compounds for 18 hr at a final concentration of 50 μM, 1% DMSO. Cells were lysed on ice in RIPA buffer (Thermo cat. #89900) containing cOmplete™ protease inhibitor cocktail (Roche cat. #11697498001) and PhosSTOP phosphatase inhibitor cocktail (Roche cat. #04906837001). 30 μg per sample of total cellular protein was resolved by SDS-PAGE and blotted onto PVDF membrane (Millipore cat. #IPVH00010). Primary antibodies were incubated overnight at 4° C. and the blots were detected with either IRDye 800CW goat anti-rabbit antibody (LI-COR cat. #926-32211) or IRDye 680RD goat anti-mouse antibody (LI-COR cat. #926-68070) at 1:5000 dilution. Signals were visualized with the LI-COR Odyssey CLx imaging system and bands were quantified using LI-COR Image Studio data analysis software. The primary antibodies used were Met (Cell Signalling Technology cat. #8198, 1:1000), cyclin D1 (Cell Signalling Technology cat. #2978, 1:1000), survivin (Santa Cruz cat. #sc-10811, 1:500), ECAD (Cell Signalling Technology cat. #3195, 1:1000), TCF4/TCF7L2 (Cell Signalling Technology cat. #2569, 1:1000), β-cat (Cell Signalling Technology cat. #8480, 1:1000), β-actin (Abcam cat. #ab8226, 1:3000).

Another assay concerns CRC1837. The experiment in a line: Viability of primary patient-derived colorectal cancer cell line. The settings on record: CRC1837, Liver Met.
Another assay has as its system CRC1258. The assay is described as above. As to conditions: CRC1258, Liver Met.
A further assay relates to CRC1850. The assay is described as above. The settings on record: CRC1850, Liver Met.
The subject of a further assay is CRC1414. Described as above.
The test system of the next assay is CRC2423. The description is as above.
Another assay concerns CRC1463. The description is as above.
For the next assay, the system named is HCT116 cells. The experiment in a line: Spheroid formation assay. The settings on record: HCT116, 30 μM. The procedure: HCT116, DLD-1, and SW480 cells were seeded as 150 cells in 200 μL spheroid medium per well in 96-well ultra-low attachment plates (Corning cat. #3474). The compounds were added on the day of cell seeding at a final concentration of 30 μM, 0.5% DMSO. The cells were grown at 37° C., 5% CO2 and images of the spheroids formed were taken on days 7 and 10 after cell seeding using the Operetta CLS system (Perkin Elmer).

For the next assay, the system named is CRC2367. Nature of the assay: Viability of primary patient-derived colorectal cancer cell line.
Assay [2] deals with Myc reporter (Luc)-HCT116 cells. The experiment in a line: Myc signalling reporter dose response. The settings on record: Homo sapiens, HCT-116, 24 hr. The procedure: The Myc reporter (Luc)-HCT116 cells were seeded as 25,000 cells in 100 μL assay medium per well in 96-well plates (Corning cat. #3903, Falcon cat. #353072). The assay medium consists of the growth medium without G-418. The next day, 4-fold dilutions of the compounds in DMSO were added to the cells at a final concentration of 1% DMSO. After 24 hr incubation, the viability of the cells was determined with PrestoBlue cell viability reagent while the luciferase reporter activity was determined with Steady-Glo luciferase reagent.
(§1) The average signal from DMSO treated wells was calculated for each plate, and the signal from each treatment well was normalized against the average DMSO signal from the respective plate. The normalized values were plotted against the concentrations tested using GraphPad Prism 5, and the EC50 values were determined through either three- or four-parameter nonlinear regression.

The subject of assay [3] is Wnt signalling (TOPFlash reporter, STF cells). Nature of the assay: Wnt STF TOPFlash reporter dose response (Wnt3A-stimulated). How it is done: Wnt STF reporter cells (HEK 293 cells stably transfected with TOPFlash reporter) and STF3A reporter cells (STF cells with constitutive secretion of Wnt3A) were kind gifts from David Virshup (Duke-NUS Graduate Medical School, Singapore). HCT116, DLD-1, and SW480 cell lines were obtained from ATCC. The Hippo pathway TEAD reporter (cat. #60618) and Myc signalling pathway reporter (cat. #60520) cells lines were purchased from BPS Bioscience, Inc.
The Wnt STF reporter cells were seeded as 20,000 cells in 100 μL culture medium per well in 96-well plates (Corning cat. #3903, Falcon cat. #353072). The next day, 5-fold dilutions of the compounds in DMSO were added to the cells at a final concentration of 1% DMSO. The cells were also stimulated with 500 ng/mL recombinant human Wnt3A (RnD systems, cat. #5036-WN-010). After 24 hr incubation, the viability of the cells was determined with cell counting kit-8 (CCK-8, Dojindo cat. #CK04) cell viability reagent according to the manufacturer's protocol while the TOPFlash reporter activity was determined with Steady-Glo luciferase reagent.
as §1

A further assay concerns CRC1177. Nature of the assay: Viability of primary patient-derived colorectal cancer cell line.

pEC50, pIC50: −log10 of the molar value. Like-named read-outs stand apart in the source and are kept apart here.

The pEC50 is −log10 of the EC50, conventionally taken in molar units. The low end stands for a large EC50, the high end for a small EC50. For orientation: pIC50 means the IC50 on a negative log10 scale, so that one unit is a factor of ten.

Turning to `CCc1ccc(OCc2nnc(SC3CCCC3=O)n2C(C)c2ccccc2)cc1` (stereo not drawn) [GB1874], in assay [1], the “expression of Wnt target genes c-Met, cyclin D1 and survivin (Western blotting)” value was “most effective at reducing the expression of these proteins”. Besides, in assay [1], the “expression of β-cat, ECAD and TCF4 (Western blotting)” value is “minimal effect on the expression of β-cat itself, or the expression of its partner proteins, such as ECAD and TCF4”. For the same compound, the pEC50 with CRC1837 was 4.68; in the assay on CRC1258, 4.57; with CRC1850 it was 4.43; in the assay on CRC1414 it was 4.38; in the assay on CRC2423, 4.52; in the assay on CRC1463, 4.57. Also, the values for the negative logarithm of the EC50 (pEC50) with CRC2367 and with CRC1177 were 4.70 and 4.72, respectively. The spheroid formation entry in the assay with HCT116 cells was “markedly reduce survival of the cancer stem-like cells”. Also, the pIC50 was 4.49 in assay [2]; 4.96 in assay [3] (Table 1, STF reporter cells, 500 ng/mL Wnt3A, 24 hr, read-out: IC50 Wnt (STF)); 5.17 in assay [3] (Table 3, STF reporter cell line, read-out: STF Inhibition IC50); 5.17 in assay [3] (unit M, read-out: STF IC50).

The record behind these values is patent US12661338B2, “Heterocyclic compounds as modulators of beta-catenin / TCF4 interaction” (AGENCY FOR SCIENCE, TECHNOLOGY AND RESEARCH, priority 2019, dated 2026).
